Values quoted from earlier work in patent publication EP0602619A1, “Controlled-release pharmaceutical compositions containing nicergoline” (INVERNI DELLA BEFFA FARMACEUTICI S.r.l., priority 1992, dated 1994).

period of excretion of the administered dose (humans, urine and feces): 3 to 4 days
half-life (in vivo): very short
Structure (SMILES): CO[C@]12C[C@@H](COC(=O)c3cncc(Br)c3)CN(C)[C@@H]1Cc1cn(C)c3cccc2c13 [Nicergoline, 8-β-1,6-dimethyl-[(5-bromonicotinoyloxy)methyl]-10α-methoxyergoline]
